Measurements as given in the supplement of paper PMC10307832.

Columns and labels:
Assay in all cases: relative viability (nuclei count vs DMSO), 5 days (fraction); higher = more cells survive
[1] = compound: COCC[n+]1c2c(n(Cc3cnccn3)c1C)C(=O)c1ccccc1C2=O [YM155] + CC(=O)Nc1cccc(-n2c(=O)n(C3CC3)c(=O)c3c(Nc4ccc(I)cc4F)n(C)c(=O)c(C)c32)c1 [Trametinib] (partner 0.02 µM)
Summary of the method: (§1)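 Relative viability is defined as nuclei in treated wells over nuclei in vehicle wells. Duplicate plates were run and medians reported. Lung cancer cell lines in 1536-well plates were dosed by pin tool one day after seeding, with one drug or with a fixed anchor-drug dose plus five library-drug doses (not always all listed) in √10 steps, and nuclei were counted after 5 days.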

[2] = compound: COCC[n+]1c2c(n(Cc3cnccn3)c1C)C(=O)c1ccccc1C2=O [YM155] + CS(=O)(=O)N1CCN(Cc2cc3nc(-c4cccc5[nH]ncc45)nc(N4CCOCC4)c3s2)CC1 [Pictilisib] (partner 1 µM)
Summary of the method: as §1

[3] = compound: COCC[n+]1c2c(n(Cc3cnccn3)c1C)C(=O)c1ccccc1C2=O [YM155] + COc1cc2c(Oc3ccc(NC(=O)C4(C(=O)Nc5ccc(F)cc5)CC4)cc3F)ccnc2cc1OCCCN1CCOCC1 [Foretinib] (partner 0.25 µM)
Summary of the method: as §1

[4] = compound: CC(C)(C)c1cc(NC(=O)Nc2ccc(-c3cn4c(n3)sc3cc(OCCN5CCOCC5)ccc34)cc2)no1 [Quizartinib] + Cc1nc(Nc2ncc(C(=O)Nc3c(C)cccc3Cl)s2)cc(N2CCN(CCO)CC2)n1 [Dasatinib] (partner 0.075 µM)
Summary of the method: as §1

| Cell Line | relative viability ([1]; first compound 0.002 µM) | relative viability ([1]; first compound 0.006325 µM) | relative viability ([1]; first compound 0.02 µM) | relative viability ([1]; first compound 0.06325 µM) | relative viability ([2]; first compound 0.002 µM) | relative viability ([2]; first compound 0.006325 µM) | relative viability ([2]; first compound 0.02 µM) | relative viability ([2]; first compound 0.06325 µM) | relative viability ([3]; first compound 0.002 µM) | relative viability ([3]; first compound 0.006325 µM) | relative viability ([3]; first compound 0.02 µM) | relative viability ([3]; first compound 0.06325 µM) | relative viability ([4]; first compound 0.001 µM) | relative viability ([4]; first compound 0.003162 µM) | relative viability ([4]; first compound 0.01 µM) | relative viability ([4]; first compound 0.03162 µM) | relative viability ([4]; first compound 0.1 µM) |
| --- | --- | --- | --- | --- | --- | --- | --- | --- | --- | --- | --- | --- | --- | --- | --- | --- | --- |
| NCI-H1755 | 0.764 | 0.752 | 0.751 | 0.755 | 0.396 | 0.437 | 0.428 | 0.513 | 0.853 | 0.934 | 0.884 | 0.976 | 0.389 | 0.367 | 0.409 | 0.429 | 0.404 |
| NCI-H1793 | 0.4 | 0.452 | 0.432 | 0.407 |  | 0.303 | 0.318 | 0.211 | 0.626 | 0.875 | 0.675 | 0.79 | 0.357 | 0.381 | 0.356 | 0.392 | 0.327 |
| NCI-H1915 | 0.303 | 0.295 | 0.3 | 0.349 | 0.904 | 0.834 | 0.88 | 0.667 | 1.05 | 1.08 | 1.08 | 0.963 | 0.344 | 0.329 | 0.262 | 0.303 | 0.324 |
| NCI-H1944 | 0.388 | 0.332 | 0.429 | 0.381 | 0.358 | 0.339 | 0.363 | 0.379 | 0.818 | 0.888 | 0.852 | 0.91 | 0.214 | 0.217 | 0.204 | 0.199 | 0.224 |
| NCI-H1975 | 0.291 | 0.299 | 0.406 | 0.236 | 0.273 | 0.268 | 0.256 | 0.224 | 0.978 | 0.907 | 0.933 | 0.308 | 0.415 | 0.305 | 0.367 | 0.297 | 0.325 |
| NCI-H1993 | 0.466 | 0.536 | 0.427 | 0.453 | 0.697 | 0.733 | 0.798 | 0.789 | 0.659 | 0.709 | 0.811 | 0.64 | 0.636 | 0.478 | 0.58 | 0.644 | 0.662 |
| NCI-H2009 | 0.273 | 0.295 | 0.354 | 0.358 | 0.8 | 0.796 | 0.852 | 0.57 | 1.24 | 1.21 | 1.09 | 0.583 | 0.283 | 0.29 | 0.252 | 0.326 | 0.26 |
| NCI-H2023 | 0.538 | 0.617 | 0.451 | 0.241 | 0.237 | 0.23 | 0.25 | 0.112 | 0.999 | 0.662 | 0.767 | 0.368 | 0.428 | 0.507 | 0.634 |  | 0.613 |
| NCI-H2085 | 0.573 | 0.659 | 0.679 | 0.348 | 0.435 | 0.38 | 0.534 | 0.429 | 0.887 | 0.922 | 0.915 | 0.629 | 0.282 | 0.237 | 0.253 | 0.231 | 0.236 |
| NCI-H2087 | 0.143 | 0.179 | 0.271 | 0.225 | 0.868 | 0.762 | 0.931 | 0.642 | 1.17 | 0.968 | 1.07 | 0.869 |  | 0.699 | 0.863 | 0.626 | 0.979 |
| NCI-H2126 | 0.558 | 0.582 | 0.541 | 0.556 | 0.427 | 0.525 | 0.466 | 0.54 | 0.893 | 1.07 | 1.25 | 1.29 | 0.454 | 0.603 | 0.655 |  | 0.625 |
| NCI-H2170 | 0.878 | 0.936 | 0.903 | 0.966 | 0.296 | 0.357 | 0.349 | 0.329 | 1 | 0.983 | 1 | 1.09 | 0.721 | 0.422 | 0.591 | 0.625 | 0.497 |
| NCI-H2228 | 0.485 | 0.444 | 0.565 | 0.589 | 0.338 | 0.278 | 0.384 | 0.388 | 0.772 | 0.912 | 0.867 | 0.708 | 0.608 | 0.413 | 0.597 | 0.494 | 0.509 |
| NCI-H2347 | 0.279 | 0.258 | 0.306 | 0.283 | 0.574 | 1.03 | 0.829 | 0.633 | 0.767 | 0.907 | 1.38 | 0.892 | 0.3 | 0.298 | 0.296 | 0.376 | 0.304 |
| NCI-H2405 | 0.661 | 0.595 | 0.596 | 0.384 | 0.407 | 0.316 | 0.395 | 0.312 | 1.04 | 1.03 | 0.936 | 0.64 | 0.266 | 0.198 | 0.216 | 0.202 | 0.244 |
| NCI-H3122 | 0.191 | 0.202 | 0.242 | 0.203 | 0.601 | 0.615 | 0.606 | 0.506 | 0.923 | 1 | 0.927 | 0.933 | 0.92 | 0.565 | 1 | 0.721 | 0.838 |
| PC-3 [JPC-3] | 0.774 | 0.666 | 0.685 | 0.598 | 0.651 | 0.792 | 0.801 | 0.759 | 1.04 | 1.08 | 1.11 | 1.02 | 0.925 | 0.967 | 1.09 | 1.01 | 1.03 |
| PC-14 | 0.617 | 0.672 | 0.36 | 0.119 | 0.648 | 0.717 | 0.693 | 0.536 | 0.83 | 0.911 | 0.908 | 1.02 | 0.262 | 0.238 | 0.321 |  | 0.254 |
